# Measurements from patent publication US11458123B2 (Arvinas, Inc., priority 2016, dated 2022).
# Test system: tau protein
# Test: Tau protein in vitro degradation assay (Western blot, Tau-13 antibody)
# Format: cell-based, human
# Settings: SK-N-SH cells; 72 hours of incubation; tested at 300 nM, 100 nM, 33 nM and 11 nM; Western blot, Tau-13 antibody
# In short: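 Tau degradation read by Tau-13 Western blot (detects all human tau forms) of SDS-PAGE-resolved lysates from SK-N-SH cells. Cells were plated at least 18 h before 72 h exposure to PROTACs at either 1000/300/100 nM or 300/100/33/11 nM.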
Compound,Degradation activity (tau protein remaining; highest amount of degradation observed at any dosage),Degradation activity* (highest amount of degradation observed at any dosage; tau protein remaining)
"Cn1c2ccncc2c2ccc(-c3ccc(OC4CC5(C4)CN(C(=O)COCCCOC4CN(c6ccc7c(c6)C(=O)N(C6CCC(=O)NC6=O)C7=O)C4)C5)nc3)cc21 (centres unmarked) [Compound 193, 2-(2,6-dioxopiperidin-3-yl)-5-(3-(3-(2-(6-((5-(5-methyl-5H-pyrido[4,3-b]indol-7-yl)pyridin-2-yl)oxy)-2-azaspiro[3.3]heptan-2-yl)-2-oxoethoxy)propoxy)azetidin-1-yl)isoindoline-1,3-dione]",B (≤80% and >50% tau protein remaining after 72 hours of incubation with the test compound),–
"Cn1c2ccncc2c2ccc(-c3ccc(O[C@H]4C[C@H](OCCCCOCCCCCOc5ccc6c(c5)C(=O)N(C5CCC(=O)NC5=O)C6=O)C4)nc3)cc21 (some centres unmarked) [Compound 114, 2-(2,6-dioxopiperidin-3-yl)-5-((5-(4-((1r,3r)-3-((5-(5-methyl-5H-pyrido[4,3-b]indol-7-yl)pyridin-2-yl)oxy)cyclobutoxy)butoxy)pentyl)oxy)isoindoline-1,3-dione]",–,C (>80% tau protein remaining after 72 hours of incubation with the test compound)
"O=C1CCC(N2C(=O)c3ccc(OCCOCCOCCOCCOCCN4CCC(c5ccc6c(c5)[nH]c5ccncc56)CC4)cc3C2=O)C(=O)N1 (centres unmarked) [Compound 57, 5-((14-(4-(5H-pyrido[4,3-b]indol-7-yl)piperidin-1-yl)-3,6,9,12-tetraoxatetradecyl)oxy)-2-(2,6-dioxopiperidin-3-yl)isoindoline-1,3-dione]",–,C (>80% tau protein remaining after 72 hours of incubation with the test compound)
"O=C1CCC(N2C(=O)c3cccc(NCCOCCOCCOCCOCCOc4ccc(-c5ccc6c(c5)[nH]c5ccncc56)cc4)c3C2=O)C(=O)N1 (centres unmarked) [Compound 86, 4-((14-(4-(5H-pyrido[4,3-b]indol-7-yl)phenoxy)-3,6,9,12-tetraoxatetradecyl)amino)-2-(2,6-dioxopiperidin-3-yl)isoindoline-1,3-dione]",–,C (>80% tau protein remaining after 72 hours of incubation with the test compound)
"Cn1c2ccncc2c2ccc(-c3ccc(O[C@H]4C[C@H](OC5CCN(CCCCCOc6ccc7c(c6)C(=O)N(C6CCC(=O)NC6=O)C7=O)CC5)C4)nc3)cc21 (some centres unmarked) [Compound 82, 2-(2,6-dioxopiperidin-3-yl)-5-((5-(4-((1r,3r)-3-((5-(5-methyl-5H-pyrido[4,3-b]indol-7-yl)pyridin-2-yl)oxy)cyclobutoxy)piperidin-1-yl)pentyl)oxy)isoindoline-1,3-dione]",–,C (>80% tau protein remaining after 72 hours of incubation with the test compound)
"O=C1CCC(N2C(=O)c3ccc(N4CC(OCCCOCCCO[C@H]5C[C@H](Oc6ncc(-c7ccc8c(c7)[nH]c7ccncc78)cc6C(F)(F)F)C5)C4)cc3C2=O)C(=O)N1 (some centres unmarked) [Compound 148, 5-(3-(3-(3-((1r,3r)-3-((5-(5H-pyrido[4,3-b]indol-7-yl)-3-(trifluoromethyl)pyridin-2-yl)oxy)cyclobutoxy)propoxy)propoxy)azetidin-1-yl)-2-(2,6-dioxopiperidin-3-yl)isoindoline-1,3-dione]",–,B (≤80% and >50% tau protein remaining after 72 hours of incubation with the test compound)
"Cn1c2ccncc2c2ccc(-c3cnc(O[C@H]4C[C@H](Oc5ccc(C#CCOC6CN(c7ccc8c(c7)C(=O)N(C7CCC(=O)NC7=O)C8=O)C6)nc5)C4)c(C(F)(F)F)c3)cc21 (some centres unmarked) [Compound 118, 2-(2,6-dioxopiperidin-3-yl)-5-(3-((3-(5-((1r,3r)-3-((5-(5-methyl-5H-pyrido[4,3-b]indol-7-yl)-3-(trifluoromethyl)pyridin-2-yl)oxy)cyclobutoxy)pyridin-2-yl)prop-2-yn-1-yl)oxy)azetidin-1-yl)isoindoline-1,3-dione]",–,C (>80% tau protein remaining after 72 hours of incubation with the test compound)
"Cn1c2ccncc2c2ccc(-c3ccc(O[C@H]4C[C@H](N(C)C5CC6(C5)CN(C(=O)CCCCOc5ccc7c(c5)C(=O)N(C5CCC(=O)NC5=O)C7=O)C6)C4)nc3)cc21 (some centres unmarked) [Compound 137, 2-(2,6-dioxopiperidin-3-yl)-5-((5-(6-(methyl((1r,3r)-3-((5-(5-methyl-5H-pyrido[4,3-b]indol-7-yl)pyridin-2-yl)oxy)cyclobutyl)amino)-2-azaspiro[3.3]heptan-2-yl)-5-oxopentyl)oxy)isoindoline-1,3-dione]",–,C (>80% tau protein remaining after 72 hours of incubation with the test compound)
"Cn1c2ccncc2c2ccc(-c3ccc(O[C@H]4C[C@@H](Oc5ccc(C#CCCCCOc6ccc7c(c6)C(=O)N(C6CCC(=O)NC6=O)C7=O)cn5)C4)nc3)cc21 (some centres unmarked) [Compound 144, 2-(2,6-dioxopiperidin-3-yl)-5-(6-(6-((1s,3s)-3-(5-(5-methyl-5H-pyrido[4,3-b]indol-7-yl)pyridin-2-yloxy)cyclobutoxy)pyridin-3-yl)hex-5-ynyloxy)isoindoline-1,3-dione]",–,C (>80% tau protein remaining after 72 hours of incubation with the test compound)
"O=C1CCC(N2C(=O)c3ccc(OCCCCCN4CCN(CCCc5ccc(-c6ccc7c(c6)[nH]c6ccncc67)cn5)CC4)cc3C2=O)C(=O)N1 (centres unmarked) [Compound 54, 5-((5-(4-(3-(5-(5H-pyrido[4,3-b]indol-7-yl)pyridin-2-yl)propyl)piperazin-1-yl)pentyl)oxy)-2-(2,6-dioxopiperidin-3-yl)isoindoline-1,3-dione]",–,C (>80% tau protein remaining after 72 hours of incubation with the test compound)

# Same assay, conditions: SK-N-SH cells; 72 hours of incubation; tested at 1000 nM, 300 nM and 100 nM
row,Compound,"Activity* (highest amount of degradation observed at any dosage, as tau protein remaining)"
1,"Cc1ncsc1-c1ccc(CNC(=O)[C@@H]2C[C@@H](O)CN2C(=O)[C@@H](NC(=O)COCCOCCOCCOCC(=O)N2CCN(c3ccn4c(n3)nc3ccccc34)CC2)C(C)(C)C)cc1 [Compound 24, (2S,4R)-1-((5)-17-(4-(benzo[4,5]imidazo[1,2-a]pyrimidin-2-yl)piperazin-1-yl)-2-(tert-butyl)-4,17-dioxo-6,9,12,15-tetraoxa-3-azaheptadecanoyl)-4-hydroxy-N-(4-(4-methylthiazol-5-yl)benzyl)pyrrolidine-2-carboxamide]",C (>80% tau protein remaining after 72 hours of incubation with the test compound)
2,"Cc1ncsc1-c1ccc([C@H](C)NC(=O)[C@@H]2C[C@@H](O)CN2C(=O)[C@@H](NC(=O)COCCOCCOc2ccc3nc(-c4ccc(N(C)C)cc4)ccc3c2)C(C)(C)C)cc1 [Compound 28, (2S,4R)-1-((S)-2-(2-(2-(2-(2-(4-(dimethylamino)phenyl)quinolin-6-yloxy)ethoxy)ethoxy)acetamido)-3,3-dimethylbutanoyl)-4-hydroxy-N—((S)-1-(4-(4-methylthiazol-5-yl)phenyl)ethyl)pyrrolidine-2-carboxamide]",C (>80% tau protein remaining after 72 hours of incubation with the test compound)
3,"Cn1c2ccncc2c2ccc(-c3ccc(OCCOCCOCCOCCOCCNc4cccc5c4C(=O)N(C4CCC(=O)NC4=O)C5=O)nc3)cc21 (centres unmarked) [Compound 48, 2-(2,6-dioxopiperidin-3-yl)-4-(14-(5-(5-methyl-5H-pyrido[4,3-b]indol-7-yl)pyridin-2-yloxy)-3,6,9,12-tetraoxatetradecylamino)isoindoline-1,3-dione]",A (≤50% tau protein remaining after 72 hours of incubation with the test compound)
4,"Cc1ncoc1-c1ccc([C@H](C)NC(=O)[C@@H]2C[C@@H](O)CN2C(=O)[C@@H](NC(=O)COCCOCCOCC(=O)N2CCN(c3ccn4c(n3)nc3ccccc34)CC2)C(C)(C)C)cc1 [Compound 21, (2S,4R)-1-((S)-14-(4-(benzo[4,5]imidazo[1,2-a]pyrimidin-2-yl)piperazin-1-yl)-2-(tert-butyl)-4,14-dioxo-6,9,12-trioxa-3-azatetadecanoyl)-4-hydroxy-N—((S)-1-(4-(4-methyloxazol-5-yl)phenyl)ethyl)pyrrolidine-2-carboxamide]",C (>80% tau protein remaining after 72 hours of incubation with the test compound)
5,"Cc1ncsc1-c1ccc([C@H](C)NC(=O)[C@@H]2C[C@@H](O)CN2C(=O)[C@@H](NC(=O)COCCOCCOCC(=O)N2CCN(c3ccn4c(n3)nc3ccccc34)CC2)C(C)(C)C)cc1 [Compound 17, (2S,4R)-1-((S)-14-(4-(benzo[4,5]imidazo[1,2-a]pyrimidin-2-yl)piperazin-1-yl)-2-(tert-butyl)-4,14-dioxo-6,9,12-trioxa-3-azatetradecanoyl)-4-hydroxy-N—((S)-1-(4-(4-methylthiazol-5-yl)phenyl)ethyl)pyrrolidine-2-carboxamide]",C (>80% tau protein remaining after 72 hours of incubation with the test compound)
6,"O=C1CCC(N2C(=O)c3cccc(NCCOCCOCCOc4ccc(-c5ccc6c(c5)[nH]c5ccncc56)cn4)c3C2=O)C(=O)N1 (centres unmarked) [Compound 3, 4-(2-(2-(2-(5-(5H-pyrido[4,3-b]indol-7-yl)pyridin-2-yloxy)ethoxy)ethoxy)ethylamino)-2-(2,6-dioxopiperidin-3-yl)isoindoline-1,3-dione]",A (≤50% tau protein remaining after 72 hours of incubation with the test compound)
7,"CN(C)c1ccc(-c2ccc3cc(OCC(O)COCCOCCOCCNc4cccc5c4C(=O)N(C4CCC(=O)NC4=O)C5=O)ccc3n2)cc1 (centres unmarked) [Compound 47, 4-(2-(2-(2-(3-(2-(4-(dimethylamino)phenyl)quinolin-6-yloxy)-2-hydroxypropoxy)ethoxy)ethoxy)ethylamino)-2-(2,6-dioxopiperidin-3-yl)isodoline-1,3-dione]",C (>80% tau protein remaining after 72 hours of incubation with the test compound)
